Patent publication US20250268934A1, “Compositions and Methods for the Treatment of Bacterial Vaginosis” (priority 2022, published 2025)

Tests used:
[1] = tested on: biofilm formation by G. vaginalis ATCC 14018; assay: Inhibition of biofilm formation (MIC-B, crystal violet staining, checkerboard); assay type: cell-based, Gardnerella vaginalis; conditions: for MIC: Gardnerella vaginalis, ATCC14018, read-out: MIC-B90
Description: Combinations of boric acid with metronidazole or tinidazole were tested in vitro in a non-planktonic, biofilm model for inhibition of biofilm formation by G. vaginalis (ATCC strain 14018).
Bacterial strain, culture media and growth conditions: From the frozen stock (−80° C.), G. vaginalis ATCC 14018 was inoculated in three culture media and propagated at 37° C. for 48 h. Brain-heart infusion (BHI) broth (Difco BD, Franklin, NJ, USA) supplemented with horse serum 3% (JRH Biosciences, KS) was used to maintain microbial growth. […] (HBT) agar (Remel, Lenexa, KS, USA) was used to confirm the purity of the frozen stock. The inoculated broth and HBT agar were incubated anaerobically (10% hydrogen, 5% carbon dioxide and 85% nitrogen) using an anaerobic gloves box (Coy Laboratory Products, Inc., Grass Lake, MI, USA). After the incubation period, the bacterial cells were transferred to BHI broth supplemented with 1% glucose (Fisher Scientific, Waltham, MA, USA) (BHIG), every 24 h twice prior to the initiation of an experiment. In order to provide suitable conditions for G. vaginalis anaerobic growth and to avoid oxidative stress, culture media were pre-incubated in the anaerobic chamber at least overnight before bacterial inoculation.
Stock solutions of antibacterial agents: Antimicrobials were evaluated for their activity against biofilm-associated G. vaginalis. Metronidazole was purchased from Alfa Aesar (Ward Hill, Massachusetts, USA). Metronidazole was prepared as a stock solution of 10 mg mL^−1 in ddH2O. Tinidazole was purchased from TCI America (Portland, OR, USA). Tinidazole was prepared as a stock solution of 10 mg/ml in DMSO. Boric acid was purchased from Fisher Chemical (Hampton, NH, USA). A fresh 1 mg mL^−1 boric acid solution in BHIG was prepared at the beginning of each experiment within the anaerobic chamber, and mixed with BHIG that had been in the anaerobic chamber overnight (to avoid oxidative stress). The stock solutions of antimicrobials were sterilized using syringe filter 0.45 μm and kept in the refrigerator for a maximum of 3 weeks. On the day of the experiment, the stock solutions were diluted in the anaerobic chamber (to avoid oxidative stress) with pre-incubated BHIG broth to avoid changing the concentrations of nutrients of growth media.
Determination of minimum biofilm inhibitory concentrations (MICs-B): MIC determination was performed according to Sutyak et al. (Antimicrob Agents, Ch 56: 1756-61, 2012) with minor modifications. Each agent was diluted two-fold with BHIG broth into two separate 96-well non-tissue culture microplates. From each dilution of boric acid, 50 μl was added horizontally over 50 μl of metronidazole or tinidazole. The final volume of antimicrobial agents diluted into the broth was 100 μL in each well. The overnight cell culture at 3±2×10^8 CFU mL^−1 was diluted in BHIG to a final concentration of 5×10^6 CFU mL^−1. From the diluted bacterial cells, 100 μL was transferred into the wells containing predetermined concentrations of antimicrobials. Sterile sealing tape (Thermo Fisher Scientific, Rochester, NY) was used to prevent evaporation. The 96-well plate was then incubated anaerobically at 37° C. for 48 h. After incubation, the biofilm was stained using 0.1% crystal violet as described by Algburi et al. (Antimicrob Agents, Ch. 61: e00650-17, 2017); Weeks et al. (Pathog Dis 77(8):ftz059, 2019; doi: 10.1093/femspd/ftz059).
Biofilm staining using CV: Biofilm staining using CV was performed as described by Borucki et al. (Appl Environ Microbiol, 69(12):7336-42, 2003, doi: 10.1128/AEM.69.12.7336-7342.2003) with minor modifications. Briefly, after counting of the non-adherent cells, the biofilm was fixed at 60° C. for 60 minutes in an inverted position in an incubator (New Brunswick Scientific Co., Inc., NJ, USA). To each well, 125 μl of 0.1% CV was added and left at room temperature for 20 minutes.

[2] = tested on: G. vaginalis ATCC 14018 planktonic cells; assay: Checkerboard assay / MIC against planktonic cells; assay type: cell-based; conditions: Gardnerella vaginalis, ATCC14018; agent alone, planktonic G. vaginalis 14018, 24 h anaerobic, 37° C.; read-out: minimal inhibitory concentration (MIC)
Description: From each dilution of boric acid, 50 μl was added horizontally over 50 μl of metronidazole or tinidazole.
The FIC index (FICI) for the combination of two agents is the sum of their individual FIC values.

[3] = concentration needed to inhibit 90% of biofilm, agent alone

Cc1ncc([N+](=O)[O-])n1CCO [metronidazole]
MIC [1, 3]: 25 µg/mL | Biofilm mass as a percentage of an untreated control ([1]; well H1: metronidazole 25 μg/ml alone (boric acid 0)): 0% | Biofilm mass as a percentage of an untreated control ([1]; well H2: metronidazole 12.5 μg/ml alone (boric acid 0)): 11% | Biofilm mass as a percentage of an untreated control ([1]; well H3: metronidazole 6.25 μg/ml alone (boric acid 0)): 61% | Biofilm mass as a percentage of an untreated control ([1]; well H4: metronidazole 3.125 μg/ml alone (boric acid 0)): 73% | Biofilm mass as a percentage of an untreated control ([1]; well H5: metronidazole 1.5625 μg/ml alone (boric acid 0)): 88% | Biofilm mass as a percentage of an untreated control ([1]; well H6: metronidazole 0.78125 μg/ml alone (boric acid 0)): 96% | Biofilm mass as a percentage of an untreated control ([1]; well H7: metronidazole 0.390625 μg/ml alone (boric acid 0)): 95% | Biofilm mass as a percentage of an untreated control ([1]; well H8: metronidazole 0.195313 μg/ml alone (boric acid 0)): 123% | Biofilm mass as a percentage of an untreated control ([1]; well H9: metronidazole 0.09765625 μg/ml alone (boric acid 0)): 100% | MIC [2]: 6.25 µg/mL

CCS(=O)(=O)CCn1c([N+](=O)[O-])cnc1C [tinidazole]
MIC [1, 3]: 25 µg/mL | Biofilm mass as a percentage of an untreated control ([1]; well H1: tinidazole 25 μg/ml alone (boric acid 0)): 6% | Biofilm mass as a percentage of an untreated control ([1]; well H2: tinidazole 12.5 μg/ml alone (boric acid 0)): 15% | Biofilm mass as a percentage of an untreated control ([1]; well H3: tinidazole 6.25 μg/ml alone (boric acid 0)): 33% | Biofilm mass as a percentage of an untreated control ([1]; well H4: tinidazole 3.125 μg/ml alone (boric acid 0)): 104% | Biofilm mass as a percentage of an untreated control ([1]; well H5: tinidazole 1.5625 μg/ml alone (boric acid 0)): 133% | Biofilm mass as a percentage of an untreated control ([1]; well H6: tinidazole 0.78125 μg/ml alone (boric acid 0)): 134% | Biofilm mass as a percentage of an untreated control ([1]; well H7: tinidazole 0.390625 μg/ml alone (boric acid 0)): 88% | Biofilm mass as a percentage of an untreated control ([1]; well H8: tinidazole 0.195313 μg/ml alone (boric acid 0)): 92% | Biofilm mass as a percentage of an untreated control ([1]; well H9: tinidazole 0.09765625 μg/ml alone (boric acid 0)): 95% | MIC [2]: 1.56 µg/mL

OB(O)O [boric acid]
MIC [1, 3]: 2.5 µg/mL | MIC-B90 [1, 3]: 0.25 % m/v | Biofilm mass as a percentage of an untreated control ([1]; well A10: boric acid 0.5 m/v alone (metronidazole 0)): −2% | Biofilm mass as a percentage of an untreated control ([1]; well A10: boric acid 0.5 m/v alone (tinidazole 0)): −1% | Biofilm mass as a percentage of an untreated control ([1]; well B10: boric acid 0.25 m/v alone (metronidazole 0)): −1% | Biofilm mass as a percentage of an untreated control ([1]; well B10: boric acid 0.25 m/v alone (tinidazole 0)): 0% | Biofilm mass as a percentage of an untreated control ([1]; well C10: boric acid 0.125 m/v alone (metronidazole 0)): 85% | Biofilm mass as a percentage of an untreated control ([1]; well C10: boric acid 0.125 m/v alone (tinidazole 0)): 63% | Biofilm mass as a percentage of an untreated control ([1]; well D10: boric acid 0.0625 m/v alone (metronidazole 0)): 95% | Biofilm mass as a percentage of an untreated control ([1]; well D10: boric acid 0.0625 m/v alone (tinidazole 0)): 88% | Biofilm mass as a percentage of an untreated control ([1]; well E10: boric acid 0.03125 m/v alone (metronidazole 0)): 92% | Biofilm mass as a percentage of an untreated control ([1]; well E10: boric acid 0.03125 m/v alone (tinidazole 0)): 93% | Biofilm mass as a percentage of an untreated control ([1]; well F10: boric acid 0.015625 m/v alone (metronidazole 0)): 100% | Biofilm mass as a percentage of an untreated control ([1]; well F10: boric acid 0.015625 m/v alone (tinidazole 0)): 95% | Biofilm mass as a percentage of an untreated control ([1]; well G10: boric acid 0.007813 m/v alone (metronidazole 0)): 101% | Biofilm mass as a percentage of an untreated control ([1]; well G10: boric acid 0.007813 m/v alone (tinidazole 0)): 98% | MIC [2]: 1.25 µg/mL
